The test system of assay [1] is MCF7. Nature of the assay: Antiproliferative activity against human MCF7 cells after 72 hrs by XTT assay. The assay is classed as functional, cell-based. As to conditions: MCF7, 72 h.
In assay [2] the test system is HL-60. Nature of the assay: Antiproliferative activity against human HL60 cells after 72 hrs by XTT assay. The conditions noted are these: HL-60, 72 h. The assay is classed as functional, cell-based.
Assay [3] relates to MCF7. Nature of the assay: Antiproliferative activity against human MCF7 cells after 24 hrs by XTT assay. The assay is classed as functional, cell-based. As to conditions: MCF7, 24 h.
For assay [4], the system named is HL-60. Nature of the assay: Antiproliferative activity against human HL60 cells after 24 hrs by XTT assay. The assay is classed as functional, cell-based. As to conditions: HL-60, 24 h. (Formazan colour is commonly taken as a measure of viable cells.)
Assay [5] relates to MCF7. Nature of the assay: Induction of apoptosis in human MCF7 cells assessed as nuclear fragmentation at IC50 after 24 hrs by DAPI staining based immunofluorescence microscopic analysis. The assay is classed as functional, cell-based.
The test system of assay [6] is DNA. Nature of the assay: Binding affinity to Escherichia coli supercoiled pBR322 DNA assessed as more than 10 cross links per DNA molecule at 0.005 molar ratio per nucleotide incubated for 24 hrs under dark condition by tapping mode atomic force microscopic analysis (reference value: 1%). The assay is classed as nucleic-acid assay.
The subject of the next assay is Calf thymus DNA. Nature of the assay: Binding affinity to calf thymus DNA at 0.1 to 0.5 molar ratio per nucleotide incubated for 24 hrs under dark condition by circular dichroism spectral analysis. The conditions noted are these: Bos taurus. The assay is classed as nucleic-acid assay. For orientation: CD spectra are sensitive to the conformation of chiral molecules.

The subject of assay [7] is MCF7. Kind of assay: Cell cycle arrest in human MCF7 cells assessed as accumulation at G0/G1 phase at IC50 after 24 hrs by propidium iodide staining based flow cytometric method. The assay is classed as functional.
For assay [8], the system named is DNA. Nature of the assay: Binding affinity to Escherichia coli supercoiled pBR322 DNA assessed as 0 to 2 cross links per DNA molecule at 0.005 molar ratio per nucleotide incubated for 24 hrs under dark condition by tapping mode atomic force microscopic analysis (reference value: 49%). The assay is classed as nucleic-acid assay.
In assay [9] the test system is HL-60. Nature of the assay: Cell cycle arrest in human HL60 cells assessed as accumulation at sub-G0/G1 phase at IC50 after 24 hrs by propidium iodide staining based flow cytometric method (reference value: 3.9%). The assay is classed as functional.
Assay [10] has as its system MCF7. Nature of the assay: Cell cycle arrest in human MCF7 cells assessed as accumulation at sub-G0/G1 phase at IC50 after 24 hrs by propidium iodide staining based flow cytometric method. The assay is classed as functional. In general terms: Flow cytometry measures light scatter and fluorescence of single cells or particles in a stream.
In assay [11] the test system is DNA. Kind of assay: Binding affinity to Escherichia coli supercoiled pBR322 DNA assessed as DNA structural variation at 0.1 to 0.5 molar ratio per nucleotide incubated for 24 hrs under dark condition by ethidium bromide staining based agarose gel electrophoresis. The assay is classed as nucleic-acid assay.
In assay [12] the test system is HL-60. Kind of assay: Induction of apoptosis in human HL60 cells assessed as necrotic cells at IC50 after 24 hrs by annexin-V-FITC/propidium iodide staining based flow cytometric analysis (reference value: 0.06%). The assay is classed as functional.
The test system of assay [13] is MCF7. Kind of assay: Induction of apoptosis in human MCF7 cells assessed as DNA condensation at IC50 after 24 hrs by DAPI staining based immunofluorescence microscopic analysis. The assay is classed as functional, cell-based.
The test system of assay [14] is HL-60. Nature of the assay: Induction of apoptosis in human HL60 cells assessed as late apoptotic cells at IC50 after 24 hrs by annexin-V-FITC/propidium iodide staining based flow cytometric analysis (reference value: 1.93%). The assay is classed as functional.
Assay [15] concerns DNA. Kind of assay: Binding affinity to Escherichia coli supercoiled pBR322 DNA assessed as DNA undergoing cross links at 0.005 molar ratio per nucleotide incubated for 24 hrs under dark condition by tapping mode atomic force microscopic analysis. The assay is classed as nucleic-acid assay.
Assay [16] has as its system MCF7. Kind of assay: Induction of apoptosis in human MCF7 cells assessed as reduction in cell size at IC50 after 24 hrs by DAPI staining based immunofluorescence microscopic analysis. The assay is classed as functional.
In assay [17] the test system is HL-60. Kind of assay: Cell cycle arrest in human HL60 cells assessed as accumulation at G2/M-phase at IC50 after 24 hrs by propidium iodide staining based flow cytometric method (reference value: 14.06%). The assay is classed as functional.
Assay [18] has as its system MCF7. Nature of the assay: Induction of apoptosis in human MCF7 cells assessed as cell blobbing at IC50 after 24 hrs by DAPI staining based immunofluorescence microscopic analysis. The assay is classed as functional.
Assay [19] relates to MCF7. Nature of the assay: Induction of apoptosis in human MCF7 cells assessed as formation of apoptotic bodies at IC50 after 24 hrs by DAPI staining based immunofluorescence microscopic analysis. The assay is classed as functional, cell-based.
Assay [20] concerns HL-60. Nature of the assay: Cell cycle arrest in human HL60 cells assessed as accumulation at G0/G1 phase at IC50 after 24 hrs by propidium iodide staining based flow cytometric method (reference value: 51.7%). The assay is classed as functional.
Assay [21] has as its system HL-60. Nature of the assay: Induction of apoptosis in human HL60 cells assessed as early apoptotic cells at IC50 after 24 hrs by annexin-V-FITC/propidium iodide staining based flow cytometric analysis (reference value: 4.2%). The assay is classed as functional.
Assay [22] deals with MCF7. Nature of the assay: Induction of apoptosis in human MCF7 cells assessed as nuclear condensation at IC50 after 24 hrs by DAPI staining based immunofluorescence microscopic analysis. The assay is classed as functional, cell-based.
For assay [23], the system named is DNA. Nature of the assay: Binding affinity to Escherichia coli supercoiled pBR322 DNA assessed as 3 to 5 cross links per DNA molecule at 0.005 molar ratio per nucleotide incubated for 24 hrs under dark condition by tapping mode atomic force microscopic analysis (reference value: 37%). The assay is classed as nucleic-acid assay.
The test system of assay [24] is MCF7. Nature of the assay: Cell cycle arrest in human MCF7 cells assessed as accumulation at S-phase at IC50 after 24 hrs by propidium iodide staining based flow cytometric method. The assay is classed as functional.
Assay [25] deals with DNA. Kind of assay: Binding affinity to Escherichia coli supercoiled pBR322 DNA assessed as DNA undergoing kinks at 0.005 molar ratio per nucleotide incubated for 24 hrs under dark condition by tapping mode atomic force microscopic analysis. The assay is classed as nucleic-acid assay.
Assay [26] deals with DNA. Kind of assay: Binding affinity to Escherichia coli supercoiled pBR322 DNA assessed as 9 to 10 cross links per DNA molecule at 0.005 molar ratio per nucleotide incubated for 24 hrs under dark condition by tapping mode atomic force microscopic analysis (reference value: 2%). The assay is classed as nucleic-acid assay.
Assay [27] relates to MCF7. Nature of the assay: Induction of apoptosis in human MCF7 cells assessed as shrinkage of cell core at IC50 after 24 hrs by DAPI staining based immunofluorescence microscopic analysis. The assay is classed as functional.
In assay [28] the test system is DNA. Kind of assay: Binding affinity to Escherichia coli supercoiled pBR322 DNA assessed as 6 to 8 cross links per DNA molecule at 0.005 molar ratio per nucleotide incubated for 24 hrs under dark condition by tapping mode atomic force microscopic analysis (reference value: 12%). The assay is classed as nucleic-acid assay.
The test system of assay [29] is HL-60. Nature of the assay: Cell cycle arrest in human HL60 cells assessed as accumulation at S-phase at IC50 after 24 hrs by propidium iodide staining based flow cytometric method (reference value: 34.24%). The assay is classed as functional.
The subject of assay [30] is DNA. Kind of assay: Binding affinity to Escherichia coli supercoiled pBR322 DNA assessed as supercoiled areas of plasmid DNA at 0.005 molar ratio per nucleotide incubated for 24 hrs under dark condition by tapping mode atomic force microscopic analysis (reference value: 3.5%). The assay is classed as nucleic-acid assay.
The test system of assay [31] is MCF7. Kind of assay: Induction of apoptosis in human MCF7 cells assessed as microtubule disintegration at IC50 after 24 hrs by indirect immunofluorescence analysis. The assay is classed as functional, cell-based.
Assay [32] has as its system MCF7. Kind of assay: Cell cycle arrest in human MCF7 cells assessed as accumulation at G2/M-phase at IC50 after 24 hrs by propidium iodide staining based flow cytometric method. The assay is classed as functional.
The subject of assay [33] is HL-60. Kind of assay: Induction of apoptosis in human HL60 cells assessed as viable cells at IC50 after 24 hrs by annexin-V-FITC/propidium iodide staining based flow cytometric analysis (reference value: 93.81%). The assay is classed as functional.

Molecules are shown by their SMILES. Activity calls are given as the source filed them. The calls are words filed in the database; no cut-off is given here. Some results are limits rather than exact numbers.

By IC50 is commonly meant the concentration that gives 50% inhibition. On to `C[C@H]1[C@H]2CC[C@H](O2)[C@]2(C)[C@@H](OCc3ccccc3)C(=O)C[C@]12O` (relative stereo), for which the IC50 in the assay on MCF7 [1], in the assay with HL-60 [2], with MCF7 [3] and in the assay on HL-60 [4] was over 250 µM throughout.

For `CC(=O)O[C@H](OCc1ccccc1)[C@]1(C)C(=O)[C@@H](I)C(=O)[C@@H](C)[C@@H]2CC[C@H]1O2`, the outcome in the assay with MCF7 [5], in the assay with MCF7 [7], in the assay on MCF7 [10], with MCF7 [13], with MCF7 [16] and with MCF7 [18] was Active. The result in the assay with MCF7 [19], in the assay with MCF7 [22], in the assay on MCF7 [24], in the assay on MCF7 [27] and with MCF7 [31] was Active. The IC50 was 18.8 µM in the assay on MCF7 [1], 3.24 µM with HL-60 [2], 27.2 µM with MCF7 [3] and 3.05 µM in the assay on HL-60 [4]. Also, the Activity in the assay with DNA [6] came to 1%; in the assay with DNA [8], 51%; in the assay with HL-60 [9] it was 31.14%; in the assay on HL-60 [12], 0.35%; with HL-60 [14] it was 26.85%; in the assay with HL-60 [17], 6.33%. The Activity stood at 67.37% in the assay on HL-60 [20]; 16.97% in the assay with HL-60 [21]; 28% with DNA [23]; 1% with DNA [26]; 19% in the assay on DNA [28]; 26.31% in the assay on HL-60 [29]. Also, the Activity is 3.6% in the assay with DNA [30] and 55.71% with HL-60 [33]. The outcome in the assay on Calf thymus DNA, with DNA [11], with DNA [15], in the assay on DNA [25] and with MCF7 [32] was inactive.

Take `COC(=O)Nc1nc2cc(C(=O)c3cccs3)ccc2[nH]1` [NOCODAZOLE]: the Activity with HL-60 [9] worked out at 14.11%; with HL-60 [17] it was 33.46%; with HL-60 [20], 45.28%; in the assay on HL-60 [29] it was 21.26%.

The record behind these values is ChEMBL document CHEMBL4118201, “Design and synthesis of new antitumor agents with the 1,7-epoxycyclononane framework. Study of their anticancer action mechanism by a model compound” (Bioorg Med Chem, 2018).
